# From patent US9944583B2, “Methods for ameliorating and preventing central nervous system inflammation” (THE REGENTS OF THE UNIVERSITY OF CALIFORNIA, priority 2007, dated 2018)
# “Also recorded” adds a separate entry of the source.
# How the values were obtained:
# Jak2 = Jak2 phosphorylation in cortical neurons exposed to IL-6; format: cell-based, mouse; conditions: IL-6 20 ng/ml, 1 h, absence of astrocytes
# Protocol: Exposure of cortical neurons to IL-6 (20 ng/ml, 1 h in the absence of astrocytes) increased the phosphorylation of the protein kinase Jak2, which transduces the signal from the activated IL-6 receptor, as illustrated by the data shown in FIG. 34A. […] Prolonged exposure (24 h) to the interleukin increased production of superoxide (as determined by DHE oxidation) and increased the expression of Nox2 in neurons, as illustrated by the data shown in FIG. 34B. The role of Nox2 activation in the increase in DHE oxidation was confirmed by co-exposure to the Nox inhibitor apocynin (0.5 mM) (FIG. 34B bottom panels).
# For FIGS. 34A-34B: primary neuronal cultures were developed on coverslips as described Kinney et al., 2006, supra. After 21 days in culture, coverslips containing neurons were separated from the astrocytic monolayers, washed in HCSS and subjected to IL-6 treatment for 1 hour (FIG. 34A) or treated with IL-6 for 24 h on top of the astrocyte monolayer (FIG. 34B). After treatment, the coverslips were fixed in paraformaldehyde and processed for double fluorescence immuno-cytochemistry using the following antibodies: anti-GAD67 (1:2000, Chemicon. Red) anti-phospho-Jak2 (1:100, Cell Signaling. Green), and anti-Nox2 (1:300, monoclonal 54.1 Green). […] Secondary antibodies were conjugated to ALEXAFLUOR 488™ (green fluorescence) and ALEXAFLUOR 568™ (red fluorescence).
# [1] = test system: primary neuronal cultures; test: IL-6 exposure of primary neuronal cultures: oxidized DHE, Nox2, parvalbumin and GAD67; format: cell-based, mouse
# Protocol: IL-6 increases superoxide in a Nox dependent manner, and reduces GAD67 and parvalbumin in primary cultures, as summarized by the data graphically presented in FIG. 18. […] As before, dihydroethidium (DHE) was applied for the last hour (DHE detects superoxide and hydrogen peroxide). After fixation, ICC for PV and GAD67 was carried out as described in methods and quantitative confocal microscopy was utilized for fluorescence analysis.
# DHE (1 μg/ml) was added during the last hour of treatment. Images show the increase in Nox2 immunoreactivity and oxidized DHE upon treatment with IL-6. Bar-graphs show the results of quantification of oxidized DHE and Nox2 fluorescence expressed as % of control. […] Data are means±SEM. Baseline intensities: DHE=21±4.7; Nox2=18.7±2.6.
# Fluorescence confocal images of representative fields depicting the expression of parvalbumin (PV) and GAD67 in PV-interneurons. Bar-graph represents the quantification of fluorescence expressed as % of control. […] Data are means±SEM. Baseline intensities: PV=135±32; GAD67=114±26.
# IL-6 potentiates ketamine effects on PV-interneurons. […] After fixation, ICC for GAD67 and parvalbumin was carried out as described by Kinney (2006) J. Neurosci. […] N=3 cultures per condition.
# Nox2 = test: IL-6 i.p. on two consecutive days in mice: brain and synaptosomal Nox; conditions: IL-6 5 μg/kg i.p. on two consecutive days
# [2] = in vivo; cited from earlier work
# [3] = IL-6 i.p. in young and old mice: plasma IL-6 (ELISA) and tolerability; format: in vivo
# Protocol: Plasma IL-6 is increased with aging or after intraperitoneal (i.p.) administration of IL-6, as illustrated by data shown in FIG. 44. […] IL-6 was assayed by ELISA (R&D Systems, Minneapolis, Minn.). Mice were then given a direct intraperitoneal (IP) injection of 3 μg/kg IL-6 on two consecutive days, and plasma IL-6 was assayed 16 hours (hr) after the last injection. […] Since the half-life of IL-6 in plasma is 4 hr, the sustained increase in IL-6 after injection may indicate induction of new IL-6 synthesis in young mice, which may be suppressed by the high endogenous IL-6 levels in old mice.
# NADPH oxidase = target: T1, NADPH oxidase (Mus musculus, UniProt Q61093); test: EPR superoxide production by forebrain synaptosomes exposed to IL-6; format: biochemical; conditions: IL-6 100 ng/ml, synaptosomes
# T1 sequence (Q61093 1-570): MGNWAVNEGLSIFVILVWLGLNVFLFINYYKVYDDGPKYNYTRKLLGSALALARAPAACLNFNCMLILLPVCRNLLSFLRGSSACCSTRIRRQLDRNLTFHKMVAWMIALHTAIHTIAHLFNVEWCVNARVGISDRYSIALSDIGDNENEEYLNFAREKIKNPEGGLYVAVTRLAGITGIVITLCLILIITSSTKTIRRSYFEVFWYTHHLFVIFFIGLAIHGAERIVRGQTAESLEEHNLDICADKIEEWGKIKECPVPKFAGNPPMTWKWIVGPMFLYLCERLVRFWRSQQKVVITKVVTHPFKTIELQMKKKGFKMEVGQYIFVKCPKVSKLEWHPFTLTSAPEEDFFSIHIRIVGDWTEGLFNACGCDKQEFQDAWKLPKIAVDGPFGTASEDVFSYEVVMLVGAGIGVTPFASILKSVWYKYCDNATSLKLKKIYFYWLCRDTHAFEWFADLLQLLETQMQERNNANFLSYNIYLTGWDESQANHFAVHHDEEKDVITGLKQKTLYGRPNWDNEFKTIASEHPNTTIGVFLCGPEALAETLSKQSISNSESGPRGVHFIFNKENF
# T1 sequence (Q61462 1-192 partner): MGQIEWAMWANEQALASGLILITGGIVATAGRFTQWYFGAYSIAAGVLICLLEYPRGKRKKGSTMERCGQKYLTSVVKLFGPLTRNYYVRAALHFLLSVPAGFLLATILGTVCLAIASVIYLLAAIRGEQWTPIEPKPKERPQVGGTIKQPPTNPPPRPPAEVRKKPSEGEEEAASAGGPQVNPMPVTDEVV
# [4] = test system: pyramidal layer of CA1 in the aged hippocampus; test: in vivo superoxide production in CA1 of the aged hippocampus (DHE confocal imaging); set-up: species or system mouse; conditions: old mice; C3 by oral administration; apocynin
# Protocol: Analysis of superoxide and/or hydrogen peroxide production by confocal imaging of in vivo dihydroethidium (DHE) oxidation. Mice will be injected intraperitoneally (i.p.) with dihydroethidium. Briefly, two serial i.p. injections of freshly prepared dihydroethidium (27 mg/kg) are given at 30 minute intervals. Eighteen hours later, mice are anesthetized with inhaled halothane, and are perfused intracardially with cold saline followed by 4% paraformaldehyde in PBS. Brains are removed and post-fixed in 2% paraformaldehyde for >24 h. Following fixation, brains are cut into 50 μm coronal sections and co-labeled with the appropriate primary and secondary antibodies for fluorescence visualization. […] First, an image is taken in the fluorescence channel of the ICC-fluorophor and then the channel is switched to image fluorescence from DHE oxidation. […] Using the image pairs for each field and MetaMorph software, an analyst blind to the group circles the outline of each ICC-labeled cell and then switches to the DHE oxidation image. The average fluorescence intensity for each cell of interest is logged, and values averaged to determine the mean fluorescence/cell.
# [5] = test system: PV-interneurons in mouse prefrontal cortex; test: two-day ketamine treatment of mice: oxidized DHE, parvalbumin and GAD67 in prefrontal cortex; format: in vivo; conditions: apocynin 5 mg/kg/day 1 week in drinking water; C3 1.0 mg/kg/day one month by mini-pumps
# Protocol: Animals and treatments. […] Male C57BL6 mice were obtained from Jackson Labs, Bar Harbor, Me., at 8-12 weeks and housed in our facility until 15 weeks when they were used for experiments. Ketamine (30 mg/kg) was applied intraperitoneally (IP) on two consecutive days at around 4 pm. DHE was applied 30 min after the last ketamine injection as described (19, 20). Briefly, two serial i.p. injections of freshly prepared dihydroethidium (27 mg/kg) are given at 30 minute intervals. Eighteen hours later, mice are anesthetized with inhaled halothane, and perfused intracardially with cold saline followed by 4% paraformaldehyde in PBS. The Nox inhibitor, apocynin (5 mg/kg/day) was given in the drinking water for a total of seven days, with an assumed intake of […] H2O/mouse/day, and ketamine was applied on the last two days. […] All animal studies were approved by the Animal Care Program at the University of California, San Diego, and are in accordance the PHS Guide for the Care and Use of Laboratory Animals, USDA Regulations, and the AVMA Panel on Euthanasia.
# Immunohistochemistry: Brains were frontally sliced in a vibratome into 50 μm coronal sections encompassing the prefrontal cortex region (from Bregma 2.0 to 1.3). Sequential slices were processed for floating-section double immunohistochemistry for the detection of parvalbumin and GAD67. Antigen retrieval was performed by incubation of the slices in 1% sodium borohydride for 15 min as described (see reference 34, below), followed by washing in PBS and incubation in 10% normal goat serum in PBS for 16 h at 4° C. Primary antibodies (Calbindin: 1:5000: Calretinin: 1:2000; Parvalbumin: 1:3000, all rabbit polyclonals from Swant, Bellinzona, Switzerland. GAD67: 1:1000, from Chemicon-Millipore, Temecula, Calif.) were diluted in 2% normal goat serum in PBS and applied to the slices for 18 h at 4° C., after which slices were washed in PBS and incubated in a 1:1000 dilution of ALEXAFLUOR™ (Molecular Probes, Invitrogen, Carlsbad, Calif.) conjugated goat anti-rabbit (568) or goat anti-mouse (488) antibodies for 1 hr at room temperature (rt). Slices were washed in PBS and mounted sequentially in glass slides using […]™ (Vector Laboratories, Burlingame, Calif.), covered with a coverslip and allowed to dry for at least 24 h before confocal imaging.
# Six slices were analyzed per animal.
# Analysis of superoxide and/or hydrogen peroxide production by confocal imaging of in vivo dihydroethidium (DHE) oxidation. Mice will be injected intraperitoneally (i.p.) with dihydroethidium.
# PV-interneurons [6] = test: PV-interneuron counts in old mice after long-term SOD-mimetic treatment; format: in vivo, mouse; conditions: treatment of animals from middle age (OM+C3)
# Protocol: Aging was accompanied by a statistically significant decrease in PV-interneuron number in all regions analyzed, as shown in FIG. 41B. […] Statistical significance was determined by ANOVA followed by Tukey's test.
# [7] = test system: primary neuronal cultures; test: DHE oxidation (superoxide and/or hydrogen peroxide production) in primary neuronal cultures exposed to ketamine; format: cell-based, mouse
# PV-interneurons [8] = test: parvalbumin and GAD67 immunoreactivity in PV-interneurons in primary neuronal cultures; conditions: co-exposure with ketamine 24 h; muscimol 10 μM, C3, apocynin 0.5 mM
Substance,phosphorylation of Jak2 (Jak2),"immunoreactivity of GAD67 and parvalbumin in PV-interneurons ([1]; IL-6 10 ng/ml, 24 h)","levels of DHE oxidation ([1]; IL-6 10 ng/ml, 24 h)","effect on parvalbumin and GAD67 immunoreactivity with sub-threshold ketamine ([1]; IL-6 10 ng/ml, ketamine, 24 h)","expression of Nox2 ([1]; IL-6, 24 hours)",Nox activity in synaptosomal preparations (Nox2),half-life in plasma [2],plasma IL-6 16 hr after the last injection ([3]; 3 μg/kg IL-6 i.p. on two consecutive days),tolerability of higher doses ([3]; IL-6 12 μg/kg),"superoxide production (EPR, DEPMPO) (NADPH oxidase)",effect on elevated levels of superoxide in the pyramidal layer of CA1 in the aged hippocampus [4],effect on ketamine-induced increase in oxidized DHE in vivo [5],effect on ketamine-mediated loss of parvalbumin immunoreactivity in PV-interneurons in vivo [5],effect on age-related reduction of PV-interneuron numbers (PV-interneurons [6]),effect on ketamine-mediated increase in ROS / free radical production (DHE fluorescence) [7],effect on ketamine-mediated increase in oxidized DHE [7],effect on ketamine-mediated loss of parvalbumin and GAD67 immunoreactivity in PV-interneurons (PV-interneurons [8])
IL-6: pro-inflammatory cytokine interleukin-6,increased,decreased,increased,increased the effects of ketamine,pronounced increase,significant induction,4 h,"increased plasma IL-6 in young, but not old, mice",induced the sickness response and generalized inflammatory reaction,small but significant increase,–,–,–,–,–,–,–
tris malonic acid C60 [C3],–,–,–,–,–,–,–,–,–,–,prevented,prevented,completely prevented,"prevented the reduction of PV-interneuron numbers in CA1 and CA3, but not in DG",prevented,prevented,prevented; also recorded: attenuated
